Results reported in US11142525B2 (Pfizer Inc., priority 2018, dated 2021).

What was measured:
[1] = system: phospho-SLP-76 (Ser376) in Jurkat cells; assay: Phospho-SLP-76 (Ser376) Homogeneous Time Resolved Fluorescence (HTRF) assay in Jurkat cells; format: cell-based; conditions: Homo sapiens, Phospho-SLP-76 (Ser376) HTRF, anti-CD3 stimulation, read-out: SLP76 Assay_IC50
Procedure, shortened: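 Phospho-SLP-76 in lysates was read by sandwich HTRF and IC50 derived by four-parameter nonlinear regression. Before lysis, cells had received compound for 30 min (11-point, 3-fold series from 10 μM, 0.1% DMSO), followed by anti-CD3 F(ab)2 complex (200 μg/mL, 15 min, 37 °C).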

[2] = target: human full-length recombinant HPK1 (Homo sapiens (Human), UniProt Q92918); assay: HPK1 biochemical enzyme assay, microfluidic mobility shift assay (MSA); conditions: HPK1 mobility shift assay; read-out: HPK1 Enzyme Assay_Ki
Sequence of human full-length recombinant HPK1 (Q92918 whole entry): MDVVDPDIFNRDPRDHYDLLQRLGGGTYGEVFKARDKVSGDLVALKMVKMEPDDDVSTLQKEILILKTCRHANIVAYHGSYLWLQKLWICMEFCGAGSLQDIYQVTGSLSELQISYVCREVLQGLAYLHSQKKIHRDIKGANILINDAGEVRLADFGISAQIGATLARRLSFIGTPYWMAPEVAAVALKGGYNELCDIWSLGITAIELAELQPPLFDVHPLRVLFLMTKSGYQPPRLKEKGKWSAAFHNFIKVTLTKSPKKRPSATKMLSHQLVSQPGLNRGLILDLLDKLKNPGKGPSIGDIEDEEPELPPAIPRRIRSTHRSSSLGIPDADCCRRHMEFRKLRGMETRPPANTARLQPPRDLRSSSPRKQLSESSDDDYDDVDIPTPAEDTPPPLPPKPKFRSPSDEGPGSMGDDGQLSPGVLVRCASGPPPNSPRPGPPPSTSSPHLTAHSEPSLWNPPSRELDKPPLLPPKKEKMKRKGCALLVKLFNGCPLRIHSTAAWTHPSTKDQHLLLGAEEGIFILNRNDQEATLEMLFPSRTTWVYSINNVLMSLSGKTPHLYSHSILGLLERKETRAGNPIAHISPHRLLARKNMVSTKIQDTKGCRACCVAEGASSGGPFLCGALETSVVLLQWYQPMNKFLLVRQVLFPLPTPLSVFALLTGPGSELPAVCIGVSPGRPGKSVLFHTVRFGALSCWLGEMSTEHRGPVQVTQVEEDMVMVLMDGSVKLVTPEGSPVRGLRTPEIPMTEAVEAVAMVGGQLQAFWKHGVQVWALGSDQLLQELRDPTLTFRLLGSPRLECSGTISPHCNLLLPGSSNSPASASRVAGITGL

**Q.** How did the IC50 [1] turn out when `NCc1nc(C2CC2)cc2c1CN(c1cccc(N3C(=O)OC[C@@H]3CF)n1)C2=O` [Example 86, 4-(aminomethyl)-6-cyclopropyl-2-{6-[(4R)-4-(fluoromethyl)-2-oxo-1,3-oxazolidin-3-yl]pyridin-2-yl}-2,3-dihydro-1H-pyrrolo[3,4-c]pyridin-1-one] was run?
**A.** Its IC50 is 652 nM.

**Q.** And the Ki [2]?
**A.** Its Ki is 3.04 nM.

**Q.** For `CNCc1nc(C2CC2)cc2c1CN(c1cccc(N3C(=O)OC[C@@H]3CF)n1)C2=O` [Example 87, 6-cyclopropyl-2-{6-[(4R)-4-(fluoromethyl)-2-oxo-1,3-oxazolidin-3-yl]pyridin-2-yl}-4-[(methylamino)methyl]-2,3-dihydro-1H-pyrrolo[3,4-c]pyridin-1-one], which IC50 [1] is on record?
**A.** Its IC50 is 299 nM.

**Q.** What about the Ki [2] of the same molecule?
**A.** Its Ki is 1.44 nM.

**Q.** With `CCN(CC)c1cc2c(c(CN(C)C)n1)CN(c1cccc(-c3nncn3CC)n1)C2=O` [Example 88, 6-(diethylamino)-4-[(dimethylamino)methyl]-2-[6-(4-ethyl-4H-1,2,4-triazol-3-yl)pyridin-2-yl]-2,3-dihydro-1H-pyrrolo[3,4-c]pyridin-1-one] as the molecule, how does the IC50 [1] read?
**A.** Its IC50 is 2680 nM.

**Q.** What about the Ki [2] of the same molecule?
**A.** The Ki was 2.52 nM.

**Q.** Which results are given for `CCn1cnnc1-c1cccc(N2Cc3c(cc(N(C)C(C)C)nc3CN)C2=O)n1` [Example 89, 4-(aminomethyl)-2-[6-(4-ethyl-4H-1,2,4-triazol-3-yl)pyridin-2-yl]-6-[methyl(propan-2-yl)amino]-2,3-dihydro-1H-pyrrolo[3,4-c]pyridin-1-one]?
**A.** IC50 [1]: 54 nM; Ki [2]: < 0.08 nM

**Q.** Which results are given for `CCCn1cnnc1-c1cccc(N2Cc3c(cc(C4(C)CC4)nc3CN)C2=O)n1` [Example 90, 4-(aminomethyl)-6-(1-methylcyclopropyl)-2-[6-(4-propyl-4H-1,2,4-triazol-3-yl)pyridin-2-yl]-2,3-dihydro-1H-pyrrolo[3,4-c]pyridin-1-one]?
**A.** IC50 [1]: 694 nM; Ki [2]: 1.46 nM

**Q.** How did the IC50 [1] turn out when `CNCc1nc(C2(C)CC2)cc2c1CN(c1cccc(N3C(=O)OC[C@@H]3CF)n1)C2=O` [Example 91, 2-{6-[(4R)-4-(fluoromethyl)-2-oxo-1,3-oxazolidin-3-yl]pyridin-2-yl}-4-[(methylamino)methyl]-6-(1-methylcyclopropyl)-2,3-dihydro-1H-pyrrolo[3,4-c]pyridin-1-one] was run?
**A.** Its IC50 is 257 nM.

**Q.** And the Ki [2]?
**A.** Its Ki is 0.33 nM.

**Q.** What does the source list for `CCn1cnnc1-c1cccc(N2Cc3c(cc(N4CCC4)nc3CNC)C2=O)n1` [Example 92, 6-(azetidin-1-yl)-2-[6-(4-ethyl-4H-1,2,4-triazol-3-yl)pyridin-2-yl]-4-[(methylamino)methyl]-2,3-dihydro-1H-pyrrolo[3,4-c]pyridin-1-one]?
**A.** IC50 [1]: 226 nM; Ki [2]: 0.43 nM

**Q.** How did the IC50 [1] turn out when `CCCn1cnnc1-c1cccc(N2Cc3c(cc(N4CCC4)nc3CNC)C2=O)n1` [Example 93, 6-(azetidin-1-yl)-4-[(methylamino)methyl]-2-[6-(4-propyl-4H-1,2,4-triazol-3-yl)pyridin-2-yl]-2,3-dihydro-1H-pyrrolo[3,4-c]pyridin-1-one] was run?
**A.** The IC50 was 713 nM.

**Q.** And the Ki [2]?
**A.** Its Ki is 0.42 nM.

**Q.** Which IC50 [1] does the source give for `CCCn1cnnc1-c1cccc(N2Cc3c(cc(C4(C)CC4)nc3CNC)C2=O)n1` [Example 94, 4-[(methylamino)methyl]-6-(1-methylcyclopropyl)-2-[6-(4-propyl-4H-1,2,4-triazol-3-yl)pyridin-2-yl]-2,3-dihydro-1H-pyrrolo[3,4-c]pyridin-1-one] here?
**A.** The IC50 was 280 nM.

**Q.** What about the Ki [2] of the same molecule?
**A.** The Ki was 0.34 nM.

**Q.** Which IC50 [1] does the source give for `CCn1cnnc1-c1cccc(N2Cc3c(cc(C4(C)CC4)nc3CNC)C2=O)n1` [Example 95, 2-[6-(4-ethyl-4H-1,2,4-triazol-3-yl)pyridin-2-yl]-4-[(methylamino)methyl]-6-(1-methylcyclopropyl)-2,3-dihydro-1H-pyrrolo[3,4-c]pyridin-1-one] here?
**A.** The IC50 was 168 nM.

**Q.** What about the Ki [2] of the same molecule?
**A.** The Ki was 0.51 nM.

**Q.** Which IC50 [1] does the source give for `CCN(CC)c1cc2c(c(CNC)n1)CN(c1cccc(-c3cnc(C)n3CC)n1)C2=O` [Example 96, 6-(diethylamino)-2-[6-(1-ethyl-2-methyl-1H-imidazol-5-yl)pyridin-2-yl]-4-[(methylamino)methyl]-2,3-dihydro-1H-pyrrolo[3,4-c]pyridin-1-one] here?
**A.** The IC50 was 142 nM.

**Q.** What about the Ki [2] of the same molecule?
**A.** The Ki was 0.4 nM.

**Q.** `CCN(CC)c1cc2c(c(CNC)n1)CN(c1cccc(-c3nnc(C)n3CC)n1)C2=O` [Example 97, 6-(diethylamino)-2-[6-(4-ethyl-5-methyl-4H-1,2,4-triazol-3-yl)pyridin-2-yl]-4-[(methylamino)methyl]-2,3-dihydro-1H-pyrrolo[3,4-c]pyridin-1-one] was tested. Which IC50 [1] did it give?
**A.** The IC50 was 186 nM.

**Q.** And the Ki [2]?
**A.** The Ki was 0.34 nM.

**Q.** Which results are given for `CCN(c1cc2c(c(CNC)n1)CN(c1cccc(N3C(=O)OC[C@@H]3CF)n1)C2=O)C(C)C` [Example 98, 6-[ethyl(propan-2-yl)amino]-2-{6-[(4R)-4-(fluoromethyl)-2-oxo-1,3-oxazolidin-3-yl]pyridin-2-yl}-4-[(methylamino)methyl]-2,3-dihydro-1H-pyrrolo[3,4-c]pyridin-1-one]?
**A.** IC50 [1]: 514 nM; Ki [2]: 0.96 nM

**Q.** `CC(C)N(C)c1cc2c(c(CN)n1)CN(c1cccc(N3C(=O)OC[C@@H]3C)n1)C2=O` [Example 100, 4-(aminomethyl)-2-{6-[(4S)-4-methyl-2-oxo-1,3-oxazolidin-3-yl]pyridin-2-yl}-6-[methyl(propan-2-yl)amino]-2,3-dihydro-1H-pyrrolo[3,4-c]pyridin-1-one] was tested. Which IC50 [1] did it give?
**A.** Its IC50 is 34 nM.

**Q.** And the Ki [2]?
**A.** Its Ki is under 0.05 nM.

**Q.** `CCn1cnnc1-c1cccc(N2Cc3c(cc(C4CCC4)nc3CNC)C2=O)n1` [Example 101, 6-cyclobutyl-2-[6-(4-ethyl-4H-1,2,4-triazol-3-yl)pyridin-2-yl]-4-[(methylamino)methyl]-2,3-dihydro-1H-pyrrolo[3,4-c]pyridin-1-one] was tested. Which IC50 [1] did it give?
**A.** Its IC50 is 217 nM.

**Q.** What about the Ki [2] of the same molecule?
**A.** Its Ki is 0.94 nM.

**Q.** With `[2H]C([2H])([2H])C([2H])([2H])N(c1cc2c(c(CNC)n1)CN(c1cccc(-c3nncn3CC)n1)C2=O)C([2H])([2H])C([2H])([2H])[2H]` [Example 102, 6-{bis[(pentadeuterio)ethyl]amino}-2-[6-(4-ethyl-4H-1,2,4-triazol-3-yl)pyridin-2-yl]-4-[(methylamino)methyl]-2,3-dihydro-1H-pyrrolo[3,4-c]pyridin-1-one] as the molecule, how does the IC50 [1] read?
**A.** Its IC50 is 74 nM.

**Q.** And the Ki [2]?
**A.** Its Ki is 0.29 nM.

**Q.** How did the IC50 [1] turn out when `CCCn1cnnc1-c1cccc(N2Cc3c(cc(C4CCC4)nc3CNC)C2=O)n1` [Example 103, 6-cyclobutyl-4-[(methylamino)methyl]-2-[6-(4-propyl-4H-1,2,4-triazol-3-yl)pyridin-2-yl]-2,3-dihydro-1H-pyrrolo[3,4-c]pyridin-1-one] was run?
**A.** The IC50 was 199 nM.

**Q.** And the Ki [2]?
**A.** The Ki was 1.15 nM.

**Q.** For `CNCc1nc(N2CCC[C@H]2C)cc2c1CN(c1cccc(-c3nncn3C(C)C)n1)C2=O` [Example 104, 4-[(methylamino)methyl]-6-[(2R)-2-methylpyrrolidin-1-yl]-2-{6-[4-(propan-2-yl)-4H-1,2,4-triazol-3-yl]pyridin-2-yl}-2,3-dihydro-1H-pyrrolo[3,4-c]pyridin-1-one], which IC50 [1] is on record?
**A.** Its IC50 is 51 nM.

**Q.** And the Ki [2]?
**A.** Its Ki is 0.13 nM.

**Q.** How did the IC50 [1] turn out when `CCCn1cnnc1-c1cccc(N2Cc3c(cc(N4[C@H](C)CC[C@H]4C)nc3CNC)C2=O)n1` [Example 105, 6-[(2R,5R)-2,5-dimethylpyrrolidin-1-yl]-4-[(methylamino)methyl]-2-[6-(4-propyl-4H-1,2,4-triazol-3-yl)pyridin-2-yl]-2,3-dihydro-1H-pyrrolo[3,4-c]pyridin-1-one] was run?
**A.** The IC50 was 64 nM.

**Q.** And the Ki [2]?
**A.** Its Ki is 0.21 nM.
